Assay results published in the CheMixHub viscosity set.
± gives the uncertainty stated by the source.

Assay: xn = mol fraction of the nth substance listed

CCCCCC[N+]1(C)CCOCC1.[Br-] + OCCOCCO
100 kPa, x1 = 0.2003
Conditions | viscosity [mPa·s]
293.15 K | 88.12 ± 2.5
298.15 K | 66.83 ± 1.6
303.15 K | 51.75 ± 1.2
308.15 K | 40.85 ± 0.96
313.15 K | 32.85 ± 0.77
318.15 K | 26.75 ± 0.63
323.15 K | 22.17 ± 0.52

CCCCCC[N+]1(C)CCOCC1.[Br-] + O=S1(=O)CCCC1
100 kPa, x1 = 0.0998
Conditions | viscosity [mPa·s]
293.15 K | 42.16 ± 0.95
298.15 K | 34.36 ± 0.78
303.15 K | 28.35 ± 0.64
308.15 K | 23.7 ± 0.54
313.15 K | 20.06 ± 0.45
318.15 K | 17.1 ± 0.39
323.15 K | 14.72 ± 0.33

OCCCCO + NC=O
Conditions | viscosity [mPa·s]
318.15 K, 101 kPa, x2 = 0.1052 | 18.95 ± 0.33

O=C1CCCN1 + OCCO
101.33 kPa
Conditions | viscosity [mPa·s]
298.15 K, x1 = 0.04482 | 16.51 ± 0.34
298.15 K, x1 = 0.1032 | 16.1 ± 0.33
298.15 K, x1 = 0.2107 | 15.53 ± 0.32
298.15 K, x1 = 0.3059 | 15.19 ± 0.31
298.15 K, x1 = 0.3998 | 14.98 ± 0.31
298.15 K, x1 = 0.4988 | 14.85 ± 0.31
298.15 K, x1 = 0.6042 | 14.73 ± 0.31
298.15 K, x1 = 0.6866 | 14.62 ± 0.3
298.15 K, x1 = 0.7865 | 14.39 ± 0.3
298.15 K, x1 = 0.9015 | 13.95 ± 0.29
298.15 K, x1 = 0.9371 | 13.76 ± 0.29
308.15 K, x1 = 0.05148 | 11.22 ± 0.23
308.15 K, x1 = 0.2079 | 10.64 ± 0.22
308.15 K, x1 = 0.3048 | 10.4 ± 0.22
308.15 K, x1 = 0.3932 | 10.24 ± 0.21
308.15 K, x1 = 0.4992 | 10.12 ± 0.21
308.15 K, x1 = 0.9078 | 9.505 ± 0.2
308.15 K, x1 = 0.952 | 9.341 ± 0.2
318.15 K, x1 = 0.04423 | 7.91 ± 0.16
318.15 K, x1 = 0.1016 | 7.746 ± 0.16
318.15 K, x1 = 0.2104 | 7.505 ± 0.16
318.15 K, x1 = 0.318 | 7.342 ± 0.15
318.15 K, x1 = 0.3931 | 7.265 ± 0.15
318.15 K, x1 = 0.4945 | 7.195 ± 0.15
318.15 K, x1 = 0.592 | 7.15 ± 0.15
318.15 K, x1 = 0.7035 | 7.089 ± 0.15
318.15 K, x1 = 0.7949 | 7.002 ± 0.15
318.15 K, x1 = 0.8888 | 6.855 ± 0.14
318.15 K, x1 = 0.9417 | 6.74 ± 0.14

OCCC1CCCCN1 (stereo not drawn) + O
viscosity [mPa·s], 101.3 kPa
Conditions | x1 = 0.0153 | x1 = 0.0564 | x1 = 0.102 | x1 = 0.173 | x1 = 0.295
298.15 K | 1.426 ± 0.022 | 3.959 ± 0.058 | 9.631 ± 0.12 | 24.9 ± 0.31 | 89.03 ± 2.3
313.15 K | 1.025 ± 0.016 | 2.371 ± 0.035 | 5.15 ± 0.074 | 11.33 ± 0.14 | 35.53 ± 0.41

CC(C)Cc1ccccc1 + CCCCCCCCCCCC
viscosity [mPa·s], 102 kPa
Conditions | x1 = 0.1006 | x1 = 0.2004 | x1 = 0.2996 | x1 = 0.3998 | x1 = 0.5 | x1 = 0.6001 | x1 = 0.6993 | x1 = 0.7997 | x1 = 0.8998
293.15 K | 1.41 ± 0.02 | 1.35 ± 0.02 | 1.28 ± 0.02 | 1.23 ± 0.02 | 1.17 ± 0.02 | 1.13 ± 0.02 | 1.09 ± 0.02 | 1.05 ± 0.02 | 1.03 ± 0.02
303.15 K | 1.19 ± 0.02 | 1.14 ± 0.02 | 1.09 ± 0.02 | 1.05 ± 0.02 | 1 ± 0.02 | 0.97 ± 0.021 | 0.945 ± 0.021 | 0.915 ± 0.021 | 0.896 ± 0.021
313.15 K | 1.02 ± 0.02 | 0.984 ± 0.021 | 0.949 ± 0.021 | 0.915 ± 0.021 | 0.88 ± 0.021 | 0.848 ± 0.021 | 0.823 ± 0.021 | 0.798 ± 0.021 | 0.781 ± 0.021
323.15 K | 0.892 ± 0.021 | 0.861 ± 0.021 | 0.83 ± 0.021 | 0.8 ± 0.021 | 0.773 ± 0.021 | 0.749 ± 0.021 | 0.726 ± 0.021 | 0.706 ± 0.021 | 0.691 ± 0.021

Cc1cc(C)cc(C)c1 + C1CCOC1
298.15 K, 101 kPa
Conditions | viscosity [mPa·s]
x2 = 0.0735 | 0.5973 ± 0.01
x2 = 0.1513 | 0.5921 ± 0.01
x2 = 0.2274 | 0.5863 ± 0.01
x2 = 0.2986 | 0.5793 ± 0.01
x2 = 0.3672 | 0.5728 ± 0.01
x2 = 0.4305 | 0.5659 ± 0.0099
x2 = 0.4912 | 0.5568 ± 0.0098
x2 = 0.6055 | 0.5353 ± 0.0094
x2 = 0.6784 | 0.5237 ± 0.0092
x2 = 0.7516 | 0.512 ± 0.009
x2 = 0.828 | 0.4999 ± 0.0088
x2 = 0.879 | 0.4857 ± 0.0086
x2 = 0.9412 | 0.4724 ± 0.0083
